Reference: patent publication US11492325B2, “Compounds as inhibitors of sodium channels” (Human BioMolecular Research Institute, priority 2016, dated 2022)
pIC50: −log10 of the molar value. Read-outs that look alike come from different tables or passages of the source.

Legend:
[1] = Metabolism in human hepatic S9
Description: (§1) A typical incubation contained rat, mouse, dog or human liver microsomes (0.4-0.5 mg of protein), 100 mM potassium phosphate buffer (pH7.4), 50 μM test compound, an NADPH-generating system consisting of 0.5 mM NADP^+, 0.5 mM glucose-6-phosphate, 1 IU/mL glucose-6-phosphate dehydrogenase, 1 mg/mL diethylenetriaminepentaaceticacid (DETAPAC), and 3 mM MgCl2 in a final incubation volume of 0.25 mL. […] After centrifugation at 3000 rpm for 5 min, the organic fraction was collected, the solvent was removed with a stream of argon and the residue was reconstituted in 125 μL of MeOH and 125 μL H2O, mixed thoroughly, centrifuged at 13,000 rpm for 5 min and analyzed by high performance liquid chromatography. Samples were run on a Hitachi D-7000 HPLC system using a L-7100 analytical pump, L-7400 UV-Visible variable wavelength detector, and L-7600 automatic sample injector. […] Disappearance of the analyte was monitored over time. A plot of the area under the curve for the normalized analyte versus time afforded the half-life values and kapp.
(§2) Microsomes contain CYPs and FMO metabolic enzymes. S9 contains soluble enzymes (i.e., aldehyde oxidase, MAO, etc.).

[2] = Metabolism in mouse hepatic S9; settings: 0.5 mg of protein
Description: as §1, §2

[3] = Metabolism in dog hepatic S9; format: in vitro ADME; settings: 0.5 mg of protein
Description: as §1, §2

[4] = Metabolism in rat hepatic S9; format: in vitro ADME; settings: 0.5 mg of protein
Description: as §1, §2

[5] = molecular target: T1, hERG potassium channel (IKr) (Homo sapiens, UniProt Q12809)
T1 sequence (Q12809 whole entry): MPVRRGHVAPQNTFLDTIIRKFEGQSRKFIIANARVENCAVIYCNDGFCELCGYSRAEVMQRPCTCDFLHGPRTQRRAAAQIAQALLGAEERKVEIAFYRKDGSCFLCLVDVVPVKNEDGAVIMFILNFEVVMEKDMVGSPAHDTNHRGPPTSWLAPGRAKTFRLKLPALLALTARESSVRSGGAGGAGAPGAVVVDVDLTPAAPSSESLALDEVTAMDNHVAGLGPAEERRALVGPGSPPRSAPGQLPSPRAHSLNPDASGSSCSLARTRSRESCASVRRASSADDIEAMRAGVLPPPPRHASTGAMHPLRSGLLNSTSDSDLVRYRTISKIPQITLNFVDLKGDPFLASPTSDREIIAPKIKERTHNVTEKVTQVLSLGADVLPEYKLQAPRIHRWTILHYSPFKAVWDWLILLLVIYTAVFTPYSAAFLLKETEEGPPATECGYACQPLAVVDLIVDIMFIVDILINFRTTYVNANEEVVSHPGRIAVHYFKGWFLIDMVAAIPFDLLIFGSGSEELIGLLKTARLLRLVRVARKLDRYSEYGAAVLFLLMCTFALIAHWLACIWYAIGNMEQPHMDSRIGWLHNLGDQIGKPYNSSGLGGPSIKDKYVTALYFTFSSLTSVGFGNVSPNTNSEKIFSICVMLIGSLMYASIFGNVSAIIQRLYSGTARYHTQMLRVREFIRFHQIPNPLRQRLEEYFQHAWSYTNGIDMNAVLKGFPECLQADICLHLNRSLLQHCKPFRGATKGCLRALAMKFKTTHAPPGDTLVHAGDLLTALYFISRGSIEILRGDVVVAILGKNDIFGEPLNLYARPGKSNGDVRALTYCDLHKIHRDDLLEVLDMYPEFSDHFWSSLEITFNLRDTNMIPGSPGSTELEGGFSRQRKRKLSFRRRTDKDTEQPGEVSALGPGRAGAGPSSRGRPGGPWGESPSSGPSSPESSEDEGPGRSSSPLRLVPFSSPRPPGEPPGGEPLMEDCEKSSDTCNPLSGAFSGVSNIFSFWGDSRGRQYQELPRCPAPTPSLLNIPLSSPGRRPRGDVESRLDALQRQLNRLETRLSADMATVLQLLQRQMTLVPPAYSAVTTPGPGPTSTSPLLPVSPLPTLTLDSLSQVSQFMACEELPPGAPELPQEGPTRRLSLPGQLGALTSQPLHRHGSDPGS

[6] = molecular target: Nav1.5 sodium channel, peak current (INaP) (Homo sapiens, UniProt Q14524, form not given); assay: in vitro; settings: Peak Na+ (INaP) IC50
Description: (§3) This provided data to investigate the physiology and action of target compounds on individual ion channels. The assay used standardized protocols for culturing and conducting conventional whole cell recording that have been previously developed for both current and voltage-clamp to characterize action potentials using transfected cells. Briefly, the Nav1.5 sodium channel was transfected into HEK293 cells. […] Briefly, cells were plated on 0.1% gelatin-coated 35-mm plastic Petri dishes. […] Data was reported as IC50 values±STD (Table 1).

[7] = molecular target: Nav1.5 sodium channel transfected into HEK293 cells (Homo sapiens, UniProt Q14524); assay: in vitro; settings: for DNap/NaL: ratio peak/late IC50, Example 2
Description: as §3

Male BALBc mice = settings: mice, i.p.; for tolerability: 30-100 mg/kg, 24 hr
From the text: Male BALBc mice (20-22 g) were used throughout these studies. The animals were maintained in a temperature-controlled room with 12-hr periods of light and darkness and had continuous access to water and animal food. […] Groups contained 2-4 animals.

[8] = tested on: cardiomyocytes derived from hiPSCs from a LQTS3 patient
[9] = tested on: normal human induced pluripotent stem cell (hiPSC) cardiomyocyte
[10] = molecular target: T1, hERG potassium channel (IKr); assay: Automated patch clamp, hERG (IKr) expressed in CHO cells; settings: hERG (IKr) IC50, CHO cells, Example 2
[11] = Solubility (water; 10:30:60% DMSO:PEG400:water vehicle); format: physicochemical
[12] = tested on: cardiomyocytes derived from hiPSCs from a LQTS3 patient; assay: cells; settings: Homo sapiens, Cardiomyocyte, read-out: LQT-IC50 (uM)-Shortening
[13] = Chemical stability in PBS buffer at pH 7.4 or 3.0, 37° C.; format: physicochemical; settings: pH 7.4, 100 μM in PBS, 1% Ethanol, read-out: Half-Life @ pH 7.4 and 37° C.
Description: A typical incubation contained 100 μM of the test compound prepared in PBS buffer (pH 7.4 or 3.0, 50 mM) with 1% Ethanol. The test compounds were incubated at 37° C. An aliquot from incubations was taken at various times and injected onto an RP-HPLC system as described above. Disappearance of the analyte was monitored over time.

[14] = molecular target: Na+ channel currents in LQT3 patient-derived cardiomyocytes (Homo sapiens, UniProt Q14524); assay: Whole cell patch clamp of Na+ currents (INaP, INaL) in hIPSC LQT3 patient-derived cardiomyocytes; format: cell-based
Sequence of Na+ channel currents in LQT3 patient-derived cardiomyocytes (Q14524 whole entry F1473C, form open): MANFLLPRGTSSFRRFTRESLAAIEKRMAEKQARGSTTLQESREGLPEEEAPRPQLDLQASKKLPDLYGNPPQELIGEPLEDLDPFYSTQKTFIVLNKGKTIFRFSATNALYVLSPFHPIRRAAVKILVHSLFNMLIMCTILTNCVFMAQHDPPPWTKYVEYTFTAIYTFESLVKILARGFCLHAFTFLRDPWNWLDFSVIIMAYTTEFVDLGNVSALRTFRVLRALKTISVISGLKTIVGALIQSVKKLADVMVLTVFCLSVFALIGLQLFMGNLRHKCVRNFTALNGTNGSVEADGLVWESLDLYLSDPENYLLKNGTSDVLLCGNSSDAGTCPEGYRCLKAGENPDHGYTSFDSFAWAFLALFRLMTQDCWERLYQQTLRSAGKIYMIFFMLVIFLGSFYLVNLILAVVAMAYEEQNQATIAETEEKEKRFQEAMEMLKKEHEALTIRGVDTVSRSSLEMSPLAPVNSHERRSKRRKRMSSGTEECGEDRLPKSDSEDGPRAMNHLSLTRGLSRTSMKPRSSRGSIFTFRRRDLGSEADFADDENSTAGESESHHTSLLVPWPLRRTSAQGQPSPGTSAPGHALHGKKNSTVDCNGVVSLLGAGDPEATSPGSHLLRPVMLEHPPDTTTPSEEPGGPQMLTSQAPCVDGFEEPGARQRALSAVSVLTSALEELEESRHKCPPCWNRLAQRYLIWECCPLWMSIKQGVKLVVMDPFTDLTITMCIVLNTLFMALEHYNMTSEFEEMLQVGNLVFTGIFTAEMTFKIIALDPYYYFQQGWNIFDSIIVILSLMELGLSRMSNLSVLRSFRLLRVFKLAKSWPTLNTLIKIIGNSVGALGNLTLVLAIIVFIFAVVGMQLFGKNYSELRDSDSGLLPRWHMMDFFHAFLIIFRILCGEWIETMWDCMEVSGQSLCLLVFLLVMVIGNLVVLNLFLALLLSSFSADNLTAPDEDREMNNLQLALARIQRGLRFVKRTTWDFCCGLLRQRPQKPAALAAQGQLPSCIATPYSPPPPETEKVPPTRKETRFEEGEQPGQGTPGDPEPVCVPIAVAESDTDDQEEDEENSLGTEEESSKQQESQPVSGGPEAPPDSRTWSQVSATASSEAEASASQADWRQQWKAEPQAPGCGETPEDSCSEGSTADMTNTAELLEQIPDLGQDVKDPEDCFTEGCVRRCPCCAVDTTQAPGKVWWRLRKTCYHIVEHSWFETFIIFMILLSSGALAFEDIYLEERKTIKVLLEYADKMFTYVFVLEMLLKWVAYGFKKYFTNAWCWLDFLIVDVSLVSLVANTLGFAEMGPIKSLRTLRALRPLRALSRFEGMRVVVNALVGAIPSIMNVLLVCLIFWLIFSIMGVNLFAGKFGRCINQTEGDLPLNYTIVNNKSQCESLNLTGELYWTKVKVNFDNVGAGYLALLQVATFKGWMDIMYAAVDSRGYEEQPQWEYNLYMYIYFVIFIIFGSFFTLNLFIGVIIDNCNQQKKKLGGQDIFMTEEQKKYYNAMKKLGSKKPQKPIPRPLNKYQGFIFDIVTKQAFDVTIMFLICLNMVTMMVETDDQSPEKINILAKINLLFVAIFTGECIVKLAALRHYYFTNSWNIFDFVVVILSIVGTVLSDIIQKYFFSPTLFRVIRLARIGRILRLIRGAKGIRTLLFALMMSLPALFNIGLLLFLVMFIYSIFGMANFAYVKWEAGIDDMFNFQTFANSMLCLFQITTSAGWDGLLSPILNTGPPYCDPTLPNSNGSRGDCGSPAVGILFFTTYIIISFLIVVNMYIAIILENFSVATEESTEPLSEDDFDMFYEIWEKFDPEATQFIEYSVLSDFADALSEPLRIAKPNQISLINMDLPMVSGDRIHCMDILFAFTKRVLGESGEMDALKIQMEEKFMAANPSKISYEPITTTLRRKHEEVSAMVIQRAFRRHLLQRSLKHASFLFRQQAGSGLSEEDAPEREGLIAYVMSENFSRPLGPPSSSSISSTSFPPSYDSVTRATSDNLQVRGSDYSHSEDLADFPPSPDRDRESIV
Description: Patch clamp recordings from hIPSC LQT3 patient-derived cardiomyocytes for Na+ channel currents were recorded in response to computed voltage waveforms that simulated adult ventricular action potentials.
The basis for LQT3 is a mutation in SCN5a that encodes the voltage-gated Na channel responsible for cardiac action potential. The Na current (INa) has peak and late components: the peak component initiates the action potential but as voltage rises, the channel normally inactivates. […] The LQT3 mutation impairs inactivation. The late component is then enlarged, resulting in action potential prolongation. […] Whole cell patch clamp electrophysiology experiments in LQTS3 cardiomyocytes helped determine the functional activity of drug candidates for inhibition of the late sodium current in the cells. Thus, we tested compounds for Peak (INaP) and Late (INaL) components. They were recorded in a “whole-cell” voltage-clamp mode configuration in response to voltage stimulation steps from −80 mV to +40 mV and their IC50 values determined (Table 1).

[15] = Metabolic stability in human liver microsomes; format: in vitro ADME; settings: human, liver microsomes, pH 7.4, liver microsomes + NADPH; species (human); read-out: metabolic stability in liver microsomes T1/2
Description: as §1

Row | Structure (SMILES) | DKr/NaL [5] | DNaP/Kr [5] | pIC50 [6] | pIC50 [7] | DNap/NaL [7] | tolerability (Male BALBc mice) | pIC50 [10] | solubility (in words) [11] | also measured
1 | Cc1ccccc1OCC(N)c1ccccc1 (stereo not drawn) [drawing 307] | – | – | – | – | – | – | – | – | % Metabolism Human S9 ([1]; 0.5 mg of protein): 7.0 ± 0.1%; % Metabolism Mouse S9 [2]: 34.6%; % Metabolism Dog S9 [3]: 98.0 ± 28.1%; % Metabolism Rat S9 [4]: 97.8 ± 19.5%
2 | Cc1ccncc1OCC(N)c1ccccc1.Cl (stereo not drawn) [Compound 88] | 10.7 | 7.7 | 4.04 | 5.98 | 87.4 | well-tolerated | 4.95 | good solubility | behavioral/toxic effects at 200 mg/kg (Male BALBc mice; 200 mg/kg): slight lethargy; LQT-Cessation Dose [8]: None; LQT-Fold Shortening ([8]; LQT3 cardiomyocytes): 1.287; Cessation of Beating [9]: None; WT-Fold Prolongation ([9]; APD, normal hiPSC cardiomyocytes): 1.52; IC50 [12]: 12.8 µM
3 | COCCNC(COc1ccccc1C(F)(F)F)c1ccccc1.Cl (stereo not drawn) [Compound 105] | 18.3 | 2.11 | 4.35 | 5.94 | 38.9 | well-tolerated | 4.68 | good solubility | –
4 | Cc1ccccc1OCC(N)c1ccccc1 (stereo not drawn) [Compound 25, 1-phenyl-2-(o-tolyloxy)ethanamine] | – | – | – | – | – | – | – | good solubility | half-life at 100 μM [13]: > 30 days; metabolism in human liver S-9 judged by HPLC [1]: detectably metabolized; pIC50 ([14]; LQT3 patient-derived cardiomyocytes, read-out: NaI channel Late (INaL) IC50): 5.76; pIC50 ([14]; whole-cell voltage clamp, steps -80 mV to +40 mV, table title says transfected CHO cells, read-out: IC50 for INaL): 5.77; pIC50 ([14]; whole-cell voltage clamp, steps -80 mV to +40 mV, table title says transfected CHO cells, read-out: IC50 for INaP): 3.99; half-life at 50 μM [15]: > 0.0417 days
